The nature of the data set: UV absorption spectra of sunscreen agents and Curcuma longa L. extract. The data set is classed as physicochemical. The conditions noted are these: absorption spectrum in methanol; for wavelength above which absorption is practically zero / practically no absorption: 0.5-20 ug/ml depending on agent (FIGS. 1A-1D); for wavelength above which absorption is low / very low: octocrylene 0.5 ug/ml, avobenzone 5 ug/ml (FIGS. 1B, 1E). An excerpt:
FIGS. 1A-1F compare the absorption spectra of representative current state-of-the-art sunscreen agents to the absorption spectra of Curcuma longa L., according to some embodiments.
The representative sunscreen agents show peaks in the absorption spectrum between the wavelengths of 290 nm to 400 nm which is the range of interest. Ideally, a desired agent would absorb energy across the entire range of 290 nm to 400 nm. In FIGS. 1A-1E, for example, a variety of peak positions are seen in the representative agents, where a high (desirable) absorption can be shown at the wavelength of the peak but there is usually a low or zero absorption at the trough, which is, of course, undesirable. Even combinations of sunscreen agents with peaks and troughs may leave areas within the wavelength range that are not covered, leaving wavelengths for which there is little or no UV protection, an undesirable situation.

The structures appear in SMILES notation.

On to `COc1ccc(C(=O)c2ccccc2)c(O)c1` [oxybenzone], for which the “wavelength above which absorption is practically zero / practically no absorption” value is on record as “about 380 nm”.

In the case of `CCCCC(CC)COC(=O)C(C#N)=C(c1ccccc1)c1ccccc1` (centres unmarked) [octocrylene], the “wavelength above which absorption is practically zero / practically no absorption” value is reported as “about 380 nm” and the “wavelength above which absorption is low / very low” value is “about 370 nm”.

For the compound `COc1ccc(C(=O)CC(=O)c2ccc(C(C)(C)C)cc2)cc1` [avobenzone], the “wavelength above which absorption is low / very low” value is listed as “about 390 nm”.

As to `CC1CC(OC(=O)c2ccccc2O)CC(C)(C)C1` (centres unmarked) [homosalate], the “wavelength above which absorption is practically zero / practically no absorption” value is on record as “about 340 nm”.
